Measured values reported in ChEMBL document CHEMBL1201862, “PubChem BioAssay data set” (2004).
Active and inactive are the calls of the source.

Columns and labels:
[1] = target: T1, Dual specificity protein phosphatase 3 (Homo sapiens, UniProt P51452); test: SAR VHR1 Fluorescent Assay for In Vitro dose response studies. [Related pubchem assays (depositor defined):AID1654, AID1661, AID1878, AID1992, AID2004, AID2070, AID2085]; type: functional
[2] = target: T1, Dual specificity protein phosphatase 3; test: MOA VHR1 Fluorescent secondary assay for identification of redox-state modulating compounds. [Related pubchem assays (depositor defined):AID1654, AID1661, AID1878, AID1957]
[3] = target: Tyrosine-protein phosphatase non-receptor type 7 (Homo sapiens, UniProt P35236); test: redox-active compounds inhibiting HePTP phosphatase – biochemical, fluorescence, mechanism study (AID 2068); type: functional
[4] = target: Dual specificity protein phosphatase 6 (Rattus norvegicus, UniProt Q64346); type: functional;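 note: confirmatory in vitro dose-response testing of MKP-3 inhibition; recombinant His-tagged MKP-3 made in E. coli BL21 with OMFP substrate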
[5] = restored growth of temperature-sensitive Burl-1 yeast – whole organism, S. cerevisiae, Burl-1 ts mutant, luminescence, counter-screen for SUMOylation pathway inhibitor project, dose response (AID 463199); type: functional
[6] = target: T2, Cytochrome P450 1A2 (Homo sapiens, UniProt P05177);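 note: PubChem cytochrome P450 panel assay, CYP1A2 panel member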
T2 sequence (P05177 whole entry): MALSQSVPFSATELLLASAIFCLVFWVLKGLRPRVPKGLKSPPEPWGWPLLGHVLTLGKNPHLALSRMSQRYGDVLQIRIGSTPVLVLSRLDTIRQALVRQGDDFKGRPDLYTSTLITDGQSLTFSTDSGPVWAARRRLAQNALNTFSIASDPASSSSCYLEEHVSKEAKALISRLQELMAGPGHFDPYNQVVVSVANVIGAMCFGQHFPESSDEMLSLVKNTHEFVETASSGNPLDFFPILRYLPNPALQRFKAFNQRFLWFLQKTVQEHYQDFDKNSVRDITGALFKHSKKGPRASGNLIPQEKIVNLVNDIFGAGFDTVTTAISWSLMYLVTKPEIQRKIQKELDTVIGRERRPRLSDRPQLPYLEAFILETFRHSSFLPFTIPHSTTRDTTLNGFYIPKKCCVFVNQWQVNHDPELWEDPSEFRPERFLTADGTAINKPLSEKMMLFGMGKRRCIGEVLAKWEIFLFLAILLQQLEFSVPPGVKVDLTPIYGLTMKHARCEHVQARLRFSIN

[7] = target: Cytochrome P450 2C9 (Homo sapiens, UniProt P11712)
[8] = luciferase reporter signal suppression in cells – H4 neuroglioma cells, luminescence, dose response (AID 1990); type: functional, cell-based
[9] = luciferase reporter signal reduction – luminescence, H4-C neuroglioblastoma cells, dose response (AID 2458); type: functional, cell-based;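 note: H4 neuroglioblastoma cells stably carrying a luciferase reporter gene fusion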
[10] = cells; type: functional, cell-based
[11] = Luminescence Cell-Based Dose Response HTS to Identify Inhibitors of 5'UTR Stem-Loop Driven Prion Protein mRNA Translation in H4 Neuroglioblastoma Cells. [Related pubchem assays: 1827 (Project Summary), 1813 (Primary HTS)]; type: functional
[12] = alpha-synuclein stem-loop luciferase translation blockers – H4 neuroglioma cells, luminescence, confirmation (AID 1988); type: functional, cell-based
[13] = alpha-synuclein stem-loop translation blockers – luminescence, H4 neuroglioblastoma cells, dose confirmation, confirmation (AID 2454); type: functional, cell-based;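 note: H4 neuroglioblastoma cells carrying an alpha-synuclein 5'UTR luciferase reporter; potency for inhibition of the luciferase signal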
[14] = system: Jurkat; test: blockers of NF-kB activation in T cells – Jurkat, luciferase reporter, luminescence, B- and T-cell, dose response (AID 489004); type: functional, cell-based; settings: Homo sapiens;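 note: NF-kB luciferase reporter Jurkat cells stimulated with PMA plus ionomycin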
[15] = HEK-293T viability loss, compound-treated – cell-based, uHTS hits, cytotoxicity control for B/T-cell NF-kB inhibitor project, dose response (AID 489019); type: functional;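 note: IC50 reflects cytotoxicity as loss of cell viability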
[16] = target: CAAX prenyl protease 1 (Saccharomyces cerevisiae S288c, UniProt P47154); test: yeast CAAX protease Ste24 inhibition – biochemical, S. cerevisiae, plate reader, cherry-pick, dose response (AID 488815)
[17] = target: CAAX prenyl protease 2 (Homo sapiens, UniProt Q9Y256); test: inhibition of Ras-converting CAAX protease Rce1 – biochemical, yeast membranes, quenched-peptide fluorescence, cherry-pick, dose response (AID 588849)
[18] = target: T3, CAAX prenyl protease 2 (Saccharomyces cerevisiae S288c, UniProt Q03530); type: biochemical
T3 sequence (Q03530 whole entry): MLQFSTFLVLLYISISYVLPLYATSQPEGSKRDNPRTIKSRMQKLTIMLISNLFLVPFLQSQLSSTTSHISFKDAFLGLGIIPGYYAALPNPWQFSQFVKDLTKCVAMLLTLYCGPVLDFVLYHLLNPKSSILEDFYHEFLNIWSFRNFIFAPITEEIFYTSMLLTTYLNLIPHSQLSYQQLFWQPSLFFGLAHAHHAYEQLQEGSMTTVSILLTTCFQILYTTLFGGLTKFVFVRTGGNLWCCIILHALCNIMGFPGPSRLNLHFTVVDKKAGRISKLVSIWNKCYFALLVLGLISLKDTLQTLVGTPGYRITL

[19] = system: HEK293; test: cells; type: functional, cell-based; settings: Homo sapiens
[20] = target: T4, Nuclear receptor subfamily 0 group B member 1 (Homo sapiens, UniProt P51843); test: Luminescence-based cell-based high throughput dose response assay for inhibitors of the orphan nuclear receptor subfamily 0, group B, member 1 (DAX1; NR0B1). [Related pubchem assays (depositor defined):AID504766, AID504790]; type: functional
T4 sequence (P51843 whole entry): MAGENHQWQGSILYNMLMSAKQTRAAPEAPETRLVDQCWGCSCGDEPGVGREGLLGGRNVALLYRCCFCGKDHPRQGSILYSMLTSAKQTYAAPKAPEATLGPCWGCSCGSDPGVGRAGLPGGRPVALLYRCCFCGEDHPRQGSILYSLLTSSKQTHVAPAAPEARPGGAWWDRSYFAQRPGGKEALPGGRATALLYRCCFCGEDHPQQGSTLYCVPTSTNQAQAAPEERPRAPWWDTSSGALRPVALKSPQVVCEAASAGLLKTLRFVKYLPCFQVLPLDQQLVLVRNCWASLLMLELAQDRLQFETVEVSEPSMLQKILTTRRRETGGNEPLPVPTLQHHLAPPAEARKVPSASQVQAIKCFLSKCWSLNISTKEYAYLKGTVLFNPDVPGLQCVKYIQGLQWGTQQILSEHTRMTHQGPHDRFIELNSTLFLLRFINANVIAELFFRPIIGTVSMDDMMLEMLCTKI

[21] = Luminescence Cell-Based/Microorganism Confirmation at Dose of Inhibitors of Trypanosoma cruzi Infection. [Related pubchem assays: 1885, 1968 ]; type: functional
[22] = Luminescence Cell-Based Secondary HTS screen to identify cytotoxic compounds of NIH3T3 cells. [Related pubchem assays: 1885, 1968 ]; type: functional
[23] = T. cruzi infection blockers in NIH3T3 cells – beta-gal luminescence, NIH3T3 host cells, confirmation (AID 2630); type: functional, cell-based; settings: Mus musculus
[24] = target: T5, Mannose-6-phosphate isomerase (Homo sapiens, UniProt P34949); test: phosphomannose isomerase inhibition – biochemical, fluorescence intensity, confirmation (AID 1535)
T5 sequence (P34949 whole entry): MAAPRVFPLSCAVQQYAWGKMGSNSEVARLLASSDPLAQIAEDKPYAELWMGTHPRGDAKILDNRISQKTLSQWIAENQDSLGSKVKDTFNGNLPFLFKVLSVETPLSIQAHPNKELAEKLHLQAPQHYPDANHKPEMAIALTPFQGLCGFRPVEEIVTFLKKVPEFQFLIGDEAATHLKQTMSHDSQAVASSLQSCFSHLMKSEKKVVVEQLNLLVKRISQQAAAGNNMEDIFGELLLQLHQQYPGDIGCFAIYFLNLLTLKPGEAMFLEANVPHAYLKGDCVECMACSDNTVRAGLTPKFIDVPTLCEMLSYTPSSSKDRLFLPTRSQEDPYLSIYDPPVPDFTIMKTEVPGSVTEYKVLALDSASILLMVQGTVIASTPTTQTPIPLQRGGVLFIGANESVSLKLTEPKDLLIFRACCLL

[25] = target: Phosphomannomutase 2 (Homo sapiens, UniProt O15305); test: Counter screen SAR assay for PMM2 inhibitors via a fluorescence intensity assay. [Related pubchem assays (depositor defined):AID1545, AID1574]
[26] = target: Phosphoethanolamine/phosphocholine phosphatase (Homo sapiens, UniProt Q8TCT1); test: SAR assay for compounds that inhibit PHOSPHO1. [Related pubchem assays (depositor defined):AID1545, AID1565, AID1574]
[27] = NIH-3T3 fibroblast cytotoxicity, dose response, cytotoxicity control, cell-based, fluorescence, Alamar Blue, secondary assay (AID 2327); type: functional;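 note: NIH-3T3 mouse fibroblasts cultured with fluconazole at 8 µg/mL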
[28] = fluconazole-exposed Candida albicans growth modulators – fluorescence, retest, confirmation (AID 2467); type: functional, cell-based
[29] = target: Serine/threonine-protein phosphatase (Candida dubliniensis (strain CD36 / CBS 7987 / NCPF 3949 / NRRLY-17841) (Yeast), UniProt B9W6M3); test: blockers of CaCl2-induced CDRE-lacZ signaling – S. cerevisiae, luminescence, secondary, dose response (AID 2388); type: functional, cell-based;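 note: yeast reporter cells carrying a calcineurin-responsive lacZ construct stimulated with calcium chloride; luminescent beta-galactosidase reporter signal in whole cells rather than isolated phosphatase activity; potency for inhibition where a drop in reporter signal means calcineurin blockade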
[30] = target: ATP-dependent molecular chaperone HSP82 (Candida albicans (strain WO-1) (Yeast), UniProt C4YTQ8); test: steroid-induced GRE reporter decrease in yeast – S. cerevisiae, luminescence, Hsp90 inhibitor project, dose response (AID 2400); type: functional, cell-based;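 note: beta-galactosidase luminescence from glucocorticoid response element reporter as proxy for Hsp90 function; inhibitor potency where signal loss means Hsp90 inhibition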
[31] = system: HEK293; test: inhibition of NOD1-driven NF-kB reporter – cell-based, luminescence, uHTS, primary screen (AID 1578); type: functional; settings: Homo sapiens
[32] = system: HEK293; test: cells; type: functional, cell-based; settings: Homo sapiens; remark: listed apart in the source
[33] = system: HEK293; test: cells; type: functional, cell-based; settings: Homo sapiens; remark: listed apart in the source
[34] = target: Nucleotide-binding oligomerization domain-containing protein 2 (Homo sapiens, UniProt Q9HC29); test: inhibition of NOD2-driven NF-kB reporter – cell-based, luminescence, uHTS, HEK293 (AID 1566); type: functional
[35] = system: HEK293; test: NOD2 signaling inhibitors in MDP-stimulated cells, cell-based, uHTS, luminescence (AID 2001); type: functional; settings: Homo sapiens
[36] = system: HEK293; test: cells; type: functional, cell-based; settings: Homo sapiens; remark: listed apart in the source
[37] = target: Tumor necrosis factor (Homo sapiens, UniProt P01375); test: analog potency on TNFa NF-kB signaling – cell-based, revised, SAR follow-up (AID 2337); type: functional
[38] = target: Nucleotide-binding oligomerization domain-containing protein 1 (Homo sapiens, UniProt Q9Y239); test: blockers of NOD1 pathway activity – revised, SAR follow-up (AID 2333); type: functional
[39] = HEK-293T viability loss after treatment – luminescence, T-cell screen hits, cytotoxicity control for TCR NF-kB inhibitor project, dose response (AID 489026); type: functional, cell-based;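 note: cells exposed to compound about 14 hours before the viability readout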
[40] = system: HEK293; test: cells; settings: Homo sapiens
[41] = target: Troponin, cardiac muscle (Homo sapiens, UniProt P19429+P45379+P63316); test: Fluorescence-based biochemical high throughput dose response assay for activators of the calcium sensitivity of cardiac Regulated Thin Filaments (RTF). [Related pubchem assays (depositor defined):AID493008, AID493018, AID504382, AID504383]; type: protein-complex assay
[42] = target: Keap1/Nrf2 (Homo sapiens, UniProt Q14145); test: disruptors of Keap1 binding to Nrf2 peptide – biochemical, fluorescence polarization, cherry-picked samples, dose response (AID 588683)
[43] = target: Cytochrome P450 2D6 (Homo sapiens, UniProt P10635);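 note: CYP2D6 member of a cytochrome P450 panel assay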
[44] = target: T2, Cytochrome P450 1A2; remark: listed apart in the source

SMILES: CCOC(=O)C1=C(c2ccccc2)N=c2sc(=Cc3cc(OC)c(OC)c(OC)c3)c(=O)n2C1c1cccs1 (centres undefined)
- IC50 [1]: > 50 µM (inactive)
- IC50 [2]: > 50 µM (inactive)
- IC50 [3]: > 50 µM (inactive)
- IC50 [4]: > 50 µM (inactive)

SMILES: Cc1cccc(N2C(=O)/C(=C/c3cccnc3)SC2=S)c1
- AC50 [5]: 51.7 µM (active)

SMILES: CC(=O)N1CCC2(CC1)CN(c1ccncc1)C2
- AC50 [6]: inconclusive
- AC50 [7]: inconclusive

SMILES: Cc1nn(C(C)(C)C)c(C)c1/C=N/OC(=O)Nc1ccc(Cl)cc1
- EC50 [8]: < 0.1 µM (active)
- EC50 [9]: 0.059 µM (active)
- EC50 [10]: 0.075 µM (active)
- EC50 [11]: < 0.1 µM (active)
- EC50 [12]: < 0.1 µM (active)
- EC50 [13]: 0.037 µM (active)
- IC50 [14]: < 0.16 µM (active)
- IC50 [15]: > 80 µM (inactive)

SMILES: O=C(NCC1CC1)c1cc(-c2ccccc2)nn1CC1CC(c2cccc([N+](=O)[O-])c2)=NO1 (centres undefined)
- AC50 [16]: 6.73 µM (active)
- AC50 [17]: 11.7 µM (active)

SMILES: O=C(Nc1ccc2c(c1)CCC2)c1ccccc1Br
- AC50 [18]: 8.42 µM (active)
- IC50 [19]: > 67.6 µM (inactive)
- IC50 [20]: > 67.6 µM (inactive)

SMILES: CC1CC(C)CN(CCOCCSc2ccccc2)C1 (centres undefined)
- EC50 [21]: 0.098 µM (active)
- EC50 [22]: > 195 µM (not active)
- EC50 [23]: 0.098 µM (active)

SMILES: O=c1c2ccc(F)cc2sn1-c1ccc(Cl)cc1Cl
- IC50 [24]: 14.4 µM (active)
- IC50 [25]: > 100 µM (inactive)
- IC50 [26]: 0.534 µM (active)

SMILES: COc1cccc(C2CC(c3ccc(NS(C)(=O)=O)cc3)=NN2C(=O)c2ccccc2)c1OC (centres undefined)
- EC50 [27]: > 150 µM (inactive)
- EC50 [28]: 1.17 µM (active)
- EC50 [29]: > 180 µM (inactive)
- EC50 [30]: > 150 µM (inactive)

SMILES: Cc1cc(-c2ccc(C)c(S(=O)(=O)N3CCN(c4ccc([N+](=O)[O-])cc4)CC3)c2)on1
- EC50 [31]: 2.09 µM (active)
- IC50 [32]: 2.36 µM (active)
- IC50 [33]: > 20 µM (inactive)
- EC50 [34]: > 20 µM (inactive)
- IC50 [35]: 7.6 µM (inactive)
- IC50 [36]: > 20 µM (inactive)
- IC50 [37]: 2.11 µM (active)
- IC50 [38]: 2.42 µM (active)
- IC50 [39]: > 80 µM (inactive)
- IC50 [40]: > 20 µM (inactive)

SMILES: CN1CCC2(CC1)C1CN(C)CC=C1C(C#N)=C(N)C2(C#N)C#N (centres undefined)
- EC50 [41]: 9 µM (active)
- AC50 [42]: > 52 µM (inactive)
- AC50 [43]: 14.1 µM (inconclusive)
- AC50 [44]: 20 µM (inconclusive)
